These results are taken from patent publication US20250064762A1, “A SUBSTITUTED AROMATIC DICARBONIC ACID AMIDE AS AN INHIBITOR OF THE FERROPTOSIS SUPPRESSOR PROTEIN-1 (FSP1)” (JULIUS-MAXIMILIANS-UNIVERSITÄT WÜRZBURG, priority 2021, published 2025).

Data set [1] deals with mouse embryonic fibroblasts (MEFs), Hepa 1-6 mouse hepatocellular carcinoma cells. The data set is described as follows: Concentration-dependent toxicity of FIN56 with CPBA or iFSP1 in mouse cells. It counts as cell-based. As to conditions: for sensitization to FIN56-induced ferroptosis in mouse cells: MEFs or Hepa 1-6 cells. On the procedure: (§1) Cells were seeded onto 96-well plates (5,000 cells per well), and treated with serial dilutions of ferroptosis-inducing compounds (erastin, BSO, RSL3, FIN56) or cytotoxic drugs (staurosporine, nocodazole, tunicamycin, paclitaxel, etoposide, menadione, rotenone, FCCP, carboplatin) in the absence or presence of CPBA or iFSP1 (100 μM or 10 μM, respectively; unless stated otherwise) or the DMSO solvent control. Ferroptotic cell death was evaluated by incubating in the absence or presence of liproxstatin-1 (100 nM), ferrostatin-1 (200 nM), or deferoxamine (100 μM). Cell viability was assessed after 16 h using AquaBluer as an indicator of viable cells according to the manufacturer's recommendations (MultiTarget Pharmaceuticals, LLC). Fluorescence (excitation, 540 nm; emission, 590 nm) was analyzed on a Clariostar microplater reader.
In order to test concentration-dependent toxicity of treatment with FIN56 and either CPBA or iFSP1, we treated mouse embryonic fibroblasts (MEFs, see FIG. 21A), or Hepa 1-6 mouse hepatocellular carcinoma cells (see FIG. 21B) with DMSO solvent control, or with the indicated concentrations of CPBA or iFSP1. Ferroptotic cell death was assessed by incubation in the absence or presence of liproxstatin-1 (lip-1; A, 500 nM; B, 250 nM).

Data set [2] relates to HT1080 FSP1-KO cells reconstituted with either FSP1-WT or FSP1-G2A. The data set can be described thus: FIN56-induced ferroptosis in FSP1-KO cells reconstituted with FSP1-WT or FSP1-G2A. It counts as cell-based, human. The following applies: iFSP1 10 μM, CPBA 100 μM. The method, then: (§2) The following HT1080 fibrosarcoma cell lines were generated using CRISPR/Cas9 technology, as previously described (Doll et al., 2019): HT1080 GPX4-knockout (KO) cells (maintained in the presence of 100 μM α-tocopherol); HT1080 GPX4 knockout cells overexpressing FSP1 (GPX4-KO/FSP1-OE); GPX4-KO cells overexpressing FSP1 and re-expressing GPX4 (GPX4-KO/FSP1-OE/GPX4-OE); HT1080 FSP1-WT or FSP1-KO cells; and HT1080 FSP1-KO cells reconstituted with either FSP1-WT or FSP1-G2A. LOX-IMVI (BRAF V600E heterozygous human melanoma cells) expressing either the Venus mock vector or FSP1-Venus (Doll et al., 2019) were grown in RPMI-1640 supplemented with 10% FCS, 2 mM L-glutamine and Pen/Strep.
In order to study the effect of FSP1 membrane targeting on iFSP1 or CPBA-dependent ferroptosis sensitization, HT1080 FSP1-KO cells reconstituted with either FSP1-WT or the membrane binding-incompetent myristoylation mutant FSP1-G2A were incubated with serial FIN56-dilutions in the absence or presence of the DMSO solvent control, iFSP1 (10 μM), or CPBA (100 μM) (see FIG. 18A).

The next data set concerns the target T1, human FSP1 (Homo sapiens, UniProt Q9BRQ8).
T1 construct: His6 (N, cleaved yes); made in house; host or cells: Escherichia coli BL21 pG-Tf2
T1 sequence (Q9BRQ8 1-373): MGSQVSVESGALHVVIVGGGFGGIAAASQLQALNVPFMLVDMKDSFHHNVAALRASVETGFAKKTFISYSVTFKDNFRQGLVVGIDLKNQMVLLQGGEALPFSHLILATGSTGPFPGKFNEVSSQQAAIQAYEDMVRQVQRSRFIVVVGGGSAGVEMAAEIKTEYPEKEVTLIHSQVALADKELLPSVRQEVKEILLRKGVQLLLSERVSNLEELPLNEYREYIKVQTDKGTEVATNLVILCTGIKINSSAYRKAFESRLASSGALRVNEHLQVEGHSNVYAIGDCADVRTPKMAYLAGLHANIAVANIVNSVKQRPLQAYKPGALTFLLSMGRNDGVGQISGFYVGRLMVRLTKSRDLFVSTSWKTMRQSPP
The data set can be described thus: Biolayer interferometry binding kinetics, human FSP1. As to conditions: 25° C. On the procedure: Purified, AviTag-fused mFSP1 or hFSP1 were enzymatically biotinylated with the E. coli biotin ligase BirA. To this end, FSP1 proteins (48 μM) were incubated with purified GST-BirA in the presence of ATP and D-biotin (Sigma Aldrich) as described (Fairhead et al., 2015). GST-BirA was removed using glutathione Sepharose 4 Fast Flow (GE Healthcare), and samples were dialyzed against TNM (pH 7.4) to remove free biotin.
Biotinylated, AviTag-fused mFSP1 or hFSP1 (1.5 μM in TNM buffer supplemented with 0.005% (v/v) Tween-20) was immobilized on streptavidin-coated biosensors (Super Streptavidin/SSA Dip and Read Biosensors, ForteBio). The sensors were then quenched with 27 μM biocytin (Sigma Aldrich), and binding kinetics were measured at 25° C. on a ForteBio Octet Red 96e instrument. Dissociation was initiated after 90 s. Reference sensors were quenched with 27 μM biocytin. Raw data was double referenced, and a global exponential regression 1:1 model was applied for kinetic analyses. Data are mean values±S.D. of at least n=4 measurements. KD, dissociation constant; Kon, on-rate constant; Koff, off-rate constant.
We also determined the CPBA and iFSP1 on-rate, off-rate and dissociation constants, which are associated with the binding and unbinding reaction of target and inhibitor. […]
For orientation: In BLI a coated tip is dipped into the sample, and binding shifts an interference pattern.

For data set [3], the system named is LOX-IMVI human melanoma cells. The data set is described as follows: FIN56-induced ferroptosis in LOX-IMVI cells with mock vector or FSP1-Venus. Format: cell-based. The method, then: as §2
LOX-IMVI cells are FSP1-deficient, and were reconstituted with either mock vector (expressing Venus), or with FSP1-Venus to restore FSP1 expression, and treated with either CPBA or iFSP1 as described above (see FIG. 18B).

Data set [4] relates to FSP1-WT or FSP1-KO HT1080 cells. The data set can be described thus: FIN-induced ferroptosis in FSP1-WT or FSP1-KO cells. As to conditions: iFSP1 10 μM, CPBA 100 μM; for extent of sensitization to ferroptosis in FSP1-WT cells: FIN56, BSO or RSL3, 16 h; for additional effect in FSP1-deficient cells: FSP1-KO HT1080. Format: cell-based, human. The method, then:
as §2, §1
We next performed comparative experiments to compare the effect of CPBA with the effect of the small molecule FSP1 inihibitor iFSP1. To this end, we incubated FSP1-WT or FSP1-KO HT1080 cells with FIN56 (see FIG. 15), BSO (see FIG. 16) or RSL3 (see FIG. 17) to induce ferroptosis as described above. Lack of FSP1 expression in FSP1-KO cell lines was confirmed by Western Blot as described above (see FIG. 14).
Next, we compared the treatment of FSP1-WT and FSP1-KO cells with either iFSP1 or with CPBA (see FIGS. 15, 16 and 17).

Turning to `O=C(Nc1ccccc1C(=O)O)c1ccc(Oc2ccc(C(=O)Nc3ccccc3C(=O)O)cc2)cc1` [CPBA, 2-[[4-[4-[(2-carboxyphenyl)carbamoyl]phenoxy]benzoyl]amino]-benzoic acid], in data set [1], the “sensitization to FIN56-induced ferroptosis in mouse cells” value is listed as “sensitizes MEFs or Hepa 1-6 cells to FIN56-induced ferroptosis”. In addition, the “ferroptosis sensitization depending on FSP1 membrane targeting” value in data set [2] is listed as “sensitize FSP1-proficient cells to ferroptosis only if FSP1 can be targeted to membranes”. In addition, the “affinity for human FSP1” value on human FSP1 is on record as “the affinity of iFSP1 for human FSP1 exceeds the affinity of CPBA for human FSP1”. The “effect in cells reconstituted with FSP1-Venus” value in data set [3] (CPBA- and FIN56-treated cells) was “FSP1-expression rescues CPBA- and FIN56-treated cells from ferroptosis”. The “enhancement of the ferroptosis-inducing effect of FIN56” value in data set [3] (FSP1-deficient cells (mock vector)) is “does not enhance the ferroptosis-inducing effect of FIN56 in FSP1-deficient cells”. Moreover, in data set [4], the “extent of sensitization to ferroptosis in FSP1-WT cells” value was “comparable to the effect of FSP1-deficiency” and the “additional effect in FSP1-deficient cells” value is on record as “no additional effect of iFSP1 or CPBA is observed in FSP1-deficient cells”.
Consider `Cc1ccc(-c2c(C#N)c(N)n3c(nc4ccccc43)c2C#N)cc1` [iFSP1, reference compound], for which the “concentrations that are non-specifically toxic to cells” value in data set [1] (16 h) is > 10 µM. Also, the “sensitization to FIN56-induced ferroptosis in mouse cells” value in data set [1] was “does not have an effect on mouse cell lines”. The “ferroptosis sensitization depending on FSP1 membrane targeting” value in data set [2] was “sensitize FSP1-proficient cells to ferroptosis only if FSP1 can be targeted to membranes”. At human FSP1, the “affinity for human FSP1” value is on record as “the affinity of iFSP1 for human FSP1 exceeds the affinity of CPBA for human FSP1”. Further, the “effectiveness in LOX-IMVI cells” value in data set [3] (as described previously (Doll et al., Nature 2019)) was “ineffective in LOX-IMVI cells”. Further, in data set [4], the “extent of sensitization to ferroptosis in FSP1-WT cells” value is “slightly smaller than the effect of CBPA in all conditions” and the “additional effect in FSP1-deficient cells” value is on record as “no additional effect of iFSP1 or CPBA is observed in FSP1-deficient cells”.
